One series has as its target T1, CYP2C8 (Homo sapiens, UniProt P10632).
T1 construct: from tissue; host or cells: human liver microsomes
T1 sequence (P10632 1-490): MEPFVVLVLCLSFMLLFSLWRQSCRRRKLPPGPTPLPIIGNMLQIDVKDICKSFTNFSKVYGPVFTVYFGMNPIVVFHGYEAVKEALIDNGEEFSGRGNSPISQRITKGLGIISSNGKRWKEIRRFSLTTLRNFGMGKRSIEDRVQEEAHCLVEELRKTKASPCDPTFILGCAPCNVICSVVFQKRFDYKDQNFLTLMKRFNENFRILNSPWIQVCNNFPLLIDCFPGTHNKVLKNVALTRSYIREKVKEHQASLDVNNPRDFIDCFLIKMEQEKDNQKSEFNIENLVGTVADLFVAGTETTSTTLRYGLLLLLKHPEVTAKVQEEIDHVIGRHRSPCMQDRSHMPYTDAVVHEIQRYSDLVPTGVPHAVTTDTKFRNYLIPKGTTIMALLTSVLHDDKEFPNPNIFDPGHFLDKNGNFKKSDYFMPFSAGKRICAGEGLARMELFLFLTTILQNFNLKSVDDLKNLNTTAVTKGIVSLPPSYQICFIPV
The experiment in a line: Cytochrome P450 inhibition CYP2C8. The following applies: human liver microsomes. It is filed as in vitro ADME. As for the experimental part: (§1) Test compound (0.1, 0.25, 1, 2.5, 10, 25 μM in DMSO; final DMSO concentration 0.3%) was incubated with human liver microsomes (0.25 mg/mL) and NADPH (1 mM) in the presence of a cytochrome P450 isoform-specific probe substrate. The metabolites were monitored by LC-MS/MS and a decrease in the formation of the metabolite compared to the vehicle control used to calculate an IC50 value (test compound concentration which produces 50% inhibition). A cytochrome P450 isoform-specific selective inhibitor was screened alongside the test compounds as a positive control.
Background: Microsomes from liver hold many membrane-bound enzymes, among them those of drug oxidation.

In another series the target is T2, CYP2C19 (Homo sapiens, UniProt P33261).
T2 construct: from tissue; host or cells: human liver microsomes
T2 sequence (P33261 whole entry): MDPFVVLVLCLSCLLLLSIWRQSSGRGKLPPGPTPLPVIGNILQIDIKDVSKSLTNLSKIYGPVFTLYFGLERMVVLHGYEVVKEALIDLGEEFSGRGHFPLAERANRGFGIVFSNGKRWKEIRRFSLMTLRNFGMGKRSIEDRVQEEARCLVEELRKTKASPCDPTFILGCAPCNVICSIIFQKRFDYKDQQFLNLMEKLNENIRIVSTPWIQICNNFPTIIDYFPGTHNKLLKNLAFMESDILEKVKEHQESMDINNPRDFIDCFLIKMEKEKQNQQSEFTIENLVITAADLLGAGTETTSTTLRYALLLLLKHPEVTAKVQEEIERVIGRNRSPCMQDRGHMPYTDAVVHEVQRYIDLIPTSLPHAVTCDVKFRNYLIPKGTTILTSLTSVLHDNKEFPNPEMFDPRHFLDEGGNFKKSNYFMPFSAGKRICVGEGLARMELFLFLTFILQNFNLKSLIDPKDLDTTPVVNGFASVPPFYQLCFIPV
The experiment in a line: Cytochrome P450 inhibition CYP2C19. It is filed as in vitro ADME. The following applies: human liver microsomes. As for the experimental part:
as §1

Another series addresses T3, CYP2D6 (Homo sapiens, UniProt P10635).
T3 construct: from tissue; host or cells: human liver microsomes
The experiment in a line: Cytochrome P450 inhibition CYP2D6. Format: in vitro ADME. The conditions noted are these: human liver microsomes. As for the experimental part:
as §1

Series [1] is described as follows: In vivo pharmacokinetics in the dog. On the set-up: species or system Beagle dogs. The following applies: Beagle, plasma, 3 mg/kg PO. As for the experimental part: The pharmacokinetics of compounds of the invention were studied in vivo in the dog at doses of 3 mg/kg (PO).
Beagle dogs (n=3) were treated with experimental compounds via oral administration (3 mg/kg). Oral administration was performed by gavage at a dose of 3 mg/kg at a concentration of 0.6 mg/mL in […], 30% PEG 400 & 65% (2-hydroxypropyl)-β-cyclodextrin solution (20% w/v aq.). Serial blood samples were collected at 0.08, 0.25, 0.5, 1, 2, 4, 6, 8, 12 and 24 hours post dosing of compound. […] Serial plasma samples were taken at the defined time points and stored immediately at −80° C.
Following protein precipitation with acetonitrile, samples were analysed with tandem. liquid chromatography/mass spectrometry using electrospray ionisation. A full matrix curve with internal standards was employed and PK parameters were calculated.

Another series addresses T4, CYP3A4 (Homo sapiens, UniProt P08684).
T4 construct: from tissue; host or cells: human liver microsomes
The experiment in a line: Cytochrome P450 inhibition CYP3A4. Format: in vitro ADME. The following applies: human liver microsomes. Here is the method: as §1

Each structure is given as a SMILES string. Read-outs that look alike come from different tables or passages of the source.

T4 sequence (P08684 whole entry): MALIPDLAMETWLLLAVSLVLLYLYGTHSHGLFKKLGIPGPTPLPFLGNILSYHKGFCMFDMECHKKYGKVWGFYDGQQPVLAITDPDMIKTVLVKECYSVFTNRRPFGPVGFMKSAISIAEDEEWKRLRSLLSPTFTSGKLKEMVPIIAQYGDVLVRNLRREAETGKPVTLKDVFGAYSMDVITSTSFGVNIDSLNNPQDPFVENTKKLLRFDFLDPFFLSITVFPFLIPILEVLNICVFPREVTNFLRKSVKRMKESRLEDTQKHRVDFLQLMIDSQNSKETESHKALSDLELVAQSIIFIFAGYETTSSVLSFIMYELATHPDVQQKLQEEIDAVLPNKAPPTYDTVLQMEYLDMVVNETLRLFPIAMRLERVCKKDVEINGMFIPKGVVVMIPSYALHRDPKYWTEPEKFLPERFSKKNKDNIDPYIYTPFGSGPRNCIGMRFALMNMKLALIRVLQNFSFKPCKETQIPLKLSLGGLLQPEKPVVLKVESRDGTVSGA
T3 sequence (P10635 whole entry): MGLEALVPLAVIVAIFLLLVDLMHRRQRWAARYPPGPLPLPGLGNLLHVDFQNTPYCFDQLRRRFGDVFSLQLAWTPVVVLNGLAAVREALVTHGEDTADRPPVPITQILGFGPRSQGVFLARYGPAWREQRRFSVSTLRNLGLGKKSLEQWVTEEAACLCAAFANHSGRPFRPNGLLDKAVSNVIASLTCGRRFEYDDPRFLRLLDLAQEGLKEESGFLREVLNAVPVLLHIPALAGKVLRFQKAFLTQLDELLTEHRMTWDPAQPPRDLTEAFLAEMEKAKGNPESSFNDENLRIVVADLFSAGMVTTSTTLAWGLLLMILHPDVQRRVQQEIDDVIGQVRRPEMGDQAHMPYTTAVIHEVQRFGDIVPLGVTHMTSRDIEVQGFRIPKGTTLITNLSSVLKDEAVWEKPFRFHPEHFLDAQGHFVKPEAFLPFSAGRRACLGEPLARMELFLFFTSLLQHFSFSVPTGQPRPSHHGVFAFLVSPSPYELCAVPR

One may read the IC50 as the concentration that gives 50% inhibition. Usually AUC stands for concentration integrated over time. A higher AUC goes with more exposure. Usually AUC(0-inf) stands for the area under the concentration-time curve extrapolated to infinity. A lower AUC(0-inf) goes with less exposure. The AUC(0-t) is the area under the concentration-time curve up to a stated or last time point. By Cmax is commonly meant the highest concentration seen after dosing. One may read the Tmax as the time from dosing to the highest level. The half-life is the time needed for the level to fall by half in the phase considered. For `CS(=O)(=O)N1CCC(n2c(CN3C(=O)C4(CC4)c4ccc(F)cc43)nc3cc(Cl)ccc32)CC1` [Compound 33, 1′-{[5-Chloro-1-(1-methanesulfonylpiperidin-4-yl)-1H-1,3-benzodiazol-2-yl]methyl}-6′-fluoro-1′,2′-dihydrospiro[cyclopropane-1,3′-indole]-2′-one], the IC50 against CYP2C8 is greater than 25 µM. For the same compound, the 50% inhibitory concentration (IC50) against CYP2C19 was greater than 25 µM. The concentration for half-maximal inhibition (IC50) against CYP2D6 is greater than 25 µM. In series [1], this compound displayed an AUC of 3.87 µg·h/mL, an AUC(0-inf) of 4.28 µg·h/mL, an AUC(0-t) of 3.87 µg·h/mL and a Cmax of 0.535 µg/mL. Moreover, in series [1], the Tmax was 0.67 h and the half-life is 7.24 h. The IC50 on CYP3A4 (substrate = midazolam, read-out: Cytochrome P450 inhibition IC50 CYP3A4 (midazolam)) was found to be 0.674 µM. Moreover, the IC50 on CYP3A4 (substrate = testosterone, read-out: Cytochrome P450 inhibition IC50 CYP3A4 (testosterone)) came to 3.94 µM.
